{"source": "patent US7915050B2", "about": "“Regulatory genes for plant differentiation and growth, and use of the same” (National University Corporation Nagoya University, priority 2005, dated 2011)", "key": {"AtGID1a": {"target": "T1, AtGID1a (Arabidopsis thaliana, UniProt Q9MAA7)", "T1 construct": "made in house; host or cells: E. coli", "T1 sequence (Q9MAA7 1-345)": "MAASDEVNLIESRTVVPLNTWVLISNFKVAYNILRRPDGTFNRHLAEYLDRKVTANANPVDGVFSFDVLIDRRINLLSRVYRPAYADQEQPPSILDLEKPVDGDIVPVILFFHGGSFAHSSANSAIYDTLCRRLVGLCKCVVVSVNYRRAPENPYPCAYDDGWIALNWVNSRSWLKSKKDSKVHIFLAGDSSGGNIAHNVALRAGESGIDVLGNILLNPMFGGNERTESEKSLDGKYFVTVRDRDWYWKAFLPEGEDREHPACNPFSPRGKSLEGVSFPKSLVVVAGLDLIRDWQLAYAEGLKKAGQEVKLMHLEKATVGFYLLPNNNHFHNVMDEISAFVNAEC", "assay": "Competitive ability of GA in AtGID1-GA binding (AtGID1a)", "description": "(§1) In the gibberellin-binding assay, [1,2,16,17-^3H4]16,17-dihydro-GA4 was used as a labeled GA4. In vitro GA-binding assays were carried out using previous methods with some modifications (Nakajima, M. et al., Biochem. Biophys. Res. Comm. 241, 782-786 (1997)). The purified recombinant GID1 protein (400 pmol) was dissolved in 300 μl of binding buffer [20 mM Tris-HCl (pH 7.6), 5 mM 2-mercaptoethanol, and 0.1 M NaCl], and incubated with 100 μl of ^3H4-16,17-dihydroGA4 (6 pmol) for two hours at 25° C., either in the absence of non-labeled GA4 (total binding) or in the presence of 833-fold excess non-labeled GA4 (total non-specific binding). Then, 0.1 ml of the reaction mixture was loaded onto a NAP-5 column (Amersham Biosciences, Piscataway, N.J.). The eluate of the binding buffer (0.6 ml) was discarded, the subsequent eluate (0.2 ml) was collected, and the radioactivity was measured. The specific binding activity, reflecting the number of displaceable GA binding sites, was calculated by subtracting the amount of nonspecific binding from the amount of total binding. The same as above can also be carried out for other GAs.\n(§2) Specifically, the coding region of the AtGID1 gene was amplified by PCR using specific primers designed based on the full-length cDNA sequence of the AtGID1 gene and having appropriate restriction sites at each end. After confirmation by sequence analysis, each cDNA fragment was ligated into pET32a vector (Novagen/Merck Biosciences, Madison, Wis., USA) or pGEX-4T-2 vector (Amersham Biosciences, Piscataway, N.J., USA; currently, a part of GE Healthcare). The production of recombinant proteins was confirmed by SDS-PAGE; vector cassettes were used as negative controls. GA binding assays were carried out similarly as described above using [1,2,16,17-^3H4]-16,17-dihydro-GA4 (4.55 TBq/mmol), which was custom-made by DuPont/NEN (Boston, Mass., USA). Non-labeled GA4 (1.25 mM) was used to measure non-specific binding. Saturation experiments for the kinetic analysis were carried out using ten concentrations of 16,17-dihydro-GA4 within the range of 25 to 1,500 nM. Competition assays were performed using [1,2,16,17-^3H4]-16,17-dihydro-GA4 at 15 nM and five concentrations of the non-labeled competitor. Recombinant RGA and GAI proteins were prepared using pET32a by a previously described method.\n(§3) The ligand selectivity of each AtGID1 was examined by observing the competitive inhibition, by the addition of GA to the assay mixtures, of the binding between the recombinant proteins and tritiated 16,17-dihydro-GA4 (Table 2). The ligand selectivity was evaluated using the concentration of GA that inhibits 50% of the tracer (15 nM) binding (IC50 value)."}, "AtGID1b": {"target": "T2, AtGID1b (Arabidopsis thaliana, UniProt Q9LYC1)", "T2 construct": "made in house; host or cells: E. coli", "T2 sequence (Q9LYC1 1-358)": "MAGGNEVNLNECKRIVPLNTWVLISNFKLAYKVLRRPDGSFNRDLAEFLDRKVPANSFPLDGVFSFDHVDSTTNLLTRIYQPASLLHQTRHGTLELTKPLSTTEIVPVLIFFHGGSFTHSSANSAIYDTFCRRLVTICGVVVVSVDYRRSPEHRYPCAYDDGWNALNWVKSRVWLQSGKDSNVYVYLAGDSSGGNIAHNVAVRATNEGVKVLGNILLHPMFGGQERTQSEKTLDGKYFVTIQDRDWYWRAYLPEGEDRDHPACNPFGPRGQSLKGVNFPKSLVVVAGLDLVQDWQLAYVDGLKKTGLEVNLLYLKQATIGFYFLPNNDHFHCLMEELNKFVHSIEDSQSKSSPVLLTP", "assay": "Competitive ability of GA in AtGID1-GA binding (AtGID1b)", "description": "as §1, §2, §3"}, "[1]": {"tested_on": "GA-deficient Arabidopsis mutant ga1-3 seeds", "assay": "Germination of GA-deficient ga1-3 seeds", "format": "in vivo", "description": "The germination of GA-deficient gal-3 seeds in a medium containing 16,17-dihydro-GA4 was tested, according to the method of Yamaguchi et al. (Plant Cell, 10, 2115-2126, […]). Approximately 70 to 80 seeds were used per each dish. Three independent measurements were carried, and the standard deviation (SD) was determined from these measurements. The seeds were assessed for germination at 23° C. on day 4, after cold treatment at 4° C. for 3 days. GA4 was used as a reference."}, "[2]": {"conditions": "tracer 15 nM, mean of at least two measurements"}}, "data": [{"smiles": "CC1C[C@]23C[C@H]1CCC2[C@]12CC[C@H](O)[C@](C)(C(=O)O1)[C@H]2[C@@H]3C(=O)O", "note": "(some centres unmarked) [H2-GA4, 16,17-dihydro-GA4]", "values": [{"measurement": "relative value, taking the value for GA4 as 100", "setting": "AtGID1a", "result": "(8) %"}, {"measurement": "IC50", "setting": "AtGID1a; [2]", "result": 4000, "unit": "nM"}, {"measurement": "relative value, taking the value for GA4 as 100", "setting": "AtGID1b", "result": "(8) %"}, {"measurement": "IC50", "setting": "AtGID1b; [2]", "result": 400, "unit": "nM"}, {"measurement": "physiological effect on germination relative to GA4", "setting": "[1]", "result": "about 1/10"}]}]}
